Test results published in ChEMBL document CHEMBL4024742, “Pharmaceutical Approaches to Target Antibiotic Resistance Mechanisms” (J Med Chem, 2017).
Converted amounts (≈) assume the structure as drawn.

Key:
Escherichia coli [1] = assay: Potentiation of ciprofloxacin induced-antimicrobial activity against multi drug-resistant Escherichia coli AG112 assessed as fold reduction in ciprofloxacin MIC at 100 ug/ml by broth microdilution method; type: functional
Escherichia coli [2] = assay: Potentiation of tetracycline induced-antimicrobial activity against multi drug-resistant Escherichia coli AG112 assessed as fold reduction in tetracycline MIC at 100 ug/ml by broth microdilution method; type: functional
Escherichia coli [3] = assay: Potentiation of florfenicol induced-antimicrobial activity against multi drug-resistant Escherichia coli AG112 assessed as fold reduction in florfenicol MIC at 100 ug/ml by broth microdilution method; type: functional
Staphylococcus aureus [4] = assay: Antibacterial activity against glycopeptide-intermediate Staphylococcus aureus by broth microdilution method; type: functional
Staphylococcus aureus [5] = assay: Antibacterial activity against methicillin-sensitive Staphylococcus aureus by broth microdilution method; type: functional
Staphylococcus aureus [6] = assay: Potentiation of ciprofloxacin induced-antimicrobial activity against Staphylococcus aureus ATCC 29213 assessed as fold reduction in ciprofloxacin MIC at 31.25 uM by broth microdilution method; type: functional
[7] = biological target: T1, Quinolone resistance protein NorA (Staphylococcus aureus, UniProt P0A0J7); assay: Inhibition of Staphylococcus aureus 1199B NorA assessed as reduction in ethidium bromide efflux by fluorescence assay
T1 sequence (P0A0J7 whole entry): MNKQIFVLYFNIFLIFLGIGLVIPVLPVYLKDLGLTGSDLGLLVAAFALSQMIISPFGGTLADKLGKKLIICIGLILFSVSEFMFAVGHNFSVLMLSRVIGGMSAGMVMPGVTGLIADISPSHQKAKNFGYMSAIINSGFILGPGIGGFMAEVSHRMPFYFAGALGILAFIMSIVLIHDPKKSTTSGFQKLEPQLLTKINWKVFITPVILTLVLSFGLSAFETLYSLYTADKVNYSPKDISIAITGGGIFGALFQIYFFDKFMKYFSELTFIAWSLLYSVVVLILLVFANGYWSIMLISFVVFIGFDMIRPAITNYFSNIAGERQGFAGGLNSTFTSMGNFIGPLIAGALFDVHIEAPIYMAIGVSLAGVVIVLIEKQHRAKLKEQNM

Pseudomonas aeruginosa [8] = assay: Antibiofilm activity against wild-type Pseudomonas aeruginosa PAO1 after 24 hrs by crystal violet staining based assay; type: functional; details: PAO1, 24 h
Staphylococcus aureus [9] = assay: Inhibition of biofilm formation in Staphylococcus aureus ATCC 43866 at 25 ug/ml after 24 hrs by MTT assay; type: functional; details: ATCC 43866, 24 h
Staphylococcus aureus [10] = assay: Antibacterial activity against planktonic Staphylococcus aureus ATCC 43866 after 24 hrs by broth microdilution method; type: functional; details: ATCC 43866, 24 h
Staphylococcus aureus [11] = assay: Antibacterial activity against planktonic Staphylococcus aureus ATCC 29213 after 24 hrs by broth microdilution method; type: functional; details: ATCC 29213, 24 h
[12] = test system: Staphylococcus epidermidis; assay: Antibacterial activity against planktonic Staphylococcus epidermidis RP62A after 24 hrs by broth microdilution method; type: functional
Staphylococcus aureus [13] = assay: Inhibition of biofilm formation in Staphylococcus aureus ATCC 29213 at 6.2 ug/ml after 24 hrs by MTT assay; type: functional; details: ATCC 29213, 24 h
Staphylococcus aureus [14] = assay: Inhibition of biofilm formation in Staphylococcus aureus ATCC 29213 at 0.045 ug/ml after 24 hrs by MTT assay; type: functional; details: ATCC 29213, 24 h
Staphylococcus aureus [15] = assay: Inhibition of biofilm formation in Staphylococcus aureus ATCC 25923 at 0.045 ug/ml after 24 hrs by MTT assay; type: functional; details: ATCC 25923, 24 h
[16] = test system: Staphylococcus epidermidis; assay: Inhibition of biofilm formation in Staphylococcus epidermidis RP62A at 0.045 ug/ml after 24 hrs by MTT assay; type: functional
Staphylococcus aureus [17] = assay: Inhibition of biofilm formation in Staphylococcus aureus 657 at 0.045 ug/ml after 24 hrs by MTT assay; type: functional; details: Staphylococcus aureus, 657, 24 h
[18] = test system: Staphylococcus epidermidis; assay: Inhibition of biofilm formation in Staphylococcus epidermidis DSM 3269 at 0.045 ug/ml after 24 hrs by MTT assay; type: functional; details: DSM 3269, 24 h
Staphylococcus aureus [19] = assay: Inhibition of biofilm formation in Staphylococcus aureus 702 at 0.045 ug/ml after 24 hrs by MTT assay; type: functional; details: Staphylococcus aureus, 702, 24 h
Staphylococcus aureus [20] = assay: Antibiofilm activity against methicillin-resistant Staphylococcus aureus BAA-1770; type: functional
Staphylococcus aureus [21] = assay: Antibiofilm activity against methicillin-resistant Staphylococcus aureus BAA-1765; type: functional
Staphylococcus aureus [22] = assay: Antibiofilm activity against methicillin-resistant Staphylococcus aureus BAA-43300; type: functional
Escherichia coli [23] = assay: Potentiation of levofloxacin induced-antimicrobial activity against Escherichia coli AB1157 assessed as fold reduction in levofloxacin MIC at 12.5 uM by broth microdilution method; type: functional
Escherichia coli [24] = assay: Potentiation of piperacillin induced-antimicrobial activity against Escherichia coli AB1157 assessed as fold reduction in piperacillin MIC at 12.5 uM by broth microdilution method; type: functional
Escherichia coli [25] = assay: Potentiation of ciprofloxacin induced-antimicrobial activity against Escherichia coli AB1157 assessed as fold reduction in ciprofloxacin MIC at 12.5 uM by broth microdilution method; type: functional
Escherichia coli [26] = assay: Potentiation of 0.016 ug/ml ciprofloxacin induced-antimicrobial activity against Escherichia coli AB1157 assessed as fold reduction in cell viability at 3.13 uM after 4 hrs by time kill assay; type: functional
Acinetobacter baumannii = assay: Antibiofilm activity against multi drug-resistant Acinetobacter baumannii ATCC 19606 assessed as biofilm dispersion after 24 hrs by crystal violet staining based assay; type: functional; details: ATCC 19606 = CIP 70.34 = JCM 6841, 24 h
Staphylococcus aureus [27] = assay: Antibiofilm activity against methicillin-resistant Staphylococcus aureus BAA-44 at 100 uM after 24 hrs by crystal violet staining based assay; type: functional; details: BAA-44, 24 h
Staphylococcus aureus [28] = assay: Antibiofilm activity against methicillin-resistant Staphylococcus aureus BAA-44 after 24 hrs by crystal violet staining based assay; type: functional; details: BAA-44, 24 h
[29] = Inhibition of Escherichia coli PBP2
[30] = Inhibition of bacterial beta-lactamase TEM-1 using nitrocefin as substrate by spectrophotometric analysis; design: species or system Bacteria
Escherichia coli [31] = assay: Antimicrobial activity against Escherichia coli; type: functional
Enterobacter = assay: Antimicrobial activity against Enterobacter; type: functional
Pseudomonas aeruginosa [32] = assay: Antimicrobial activity against Pseudomonas aeruginosa; type: functional
[33] = Inhibition of bacterial beta-lactamase KPC-2 using nitrocefin as substrate by spectrophotometric analysis; design: species or system Bacteria
[34] = Inhibition of bacterial beta-lactamase CMY-2 using nitrocefin as substrate by spectrophotometric analysis; design: species or system Bacteria
[35] = Inhibition of bacterial beta-lactamase CTX-M-9 using nitrocefin as substrate by spectrophotometric analysis; design: species or system Bacteria

## c1ccc2c(CN3CCNCC3)cccc2c1
Escherichia coli [1]
  fold change (FC): 4
Escherichia coli [2]
  fold change (FC): 4
Escherichia coli [3]
  fold change (FC): 4

## COc1cc(O)c2c(C)c(-c3ccccc3)c(=O)[nH]c2c1
Staphylococcus aureus [4]
  MIC: 17.6 to 35.1 µg/mL (≈ 62.6 to 125 µM)
Staphylococcus aureus [5]
  MIC: 17.6 to 35.1 µg/mL (≈ 62.6 to 125 µM)
Staphylococcus aureus [6]
  fold change (FC): 4
[7]
  IC50: 18 µM

## Cc1cc2nc(N)[nH]c2cc1C
Pseudomonas aeruginosa [8]
  IC50: 4 µM

## Cc1nn(C)c([N-]C(=O)c2ccc([N+](=O)[O-])cc2)c1[N+]#N
Staphylococcus aureus [9]
  inhibition at 25 µg/mL: 69 to 96%
Staphylococcus aureus [10]
  MIC: 1.5 to 12.5 µg/mL (≈ 5.24 to 43.7 µM)
Staphylococcus aureus [11]
  MIC: 1.5 to 12.5 µg/mL (≈ 5.24 to 43.7 µM)
[12]
  MIC: 1.5 to 12.5 µg/mL (≈ 5.24 to 43.7 µM)
Staphylococcus aureus [13]
  inhibition at 6.2 µg/mL: 86.5%

## O=C(c1cc(Br)ccc1O)c1[nH]c(Cl)c(Cl)c1Br
Staphylococcus aureus [14]
  inhibition at 0.045 µg/mL: > 50%
Staphylococcus aureus [15]
  inhibition at 0.045 µg/mL: > 50%
[16]
  inhibition at 0.045 µg/mL: > 50%
Staphylococcus aureus [17]
  inhibition at 0.045 µg/mL: > 50%
[18]
  inhibition at 0.045 µg/mL: > 50%
Staphylococcus aureus [19]
  inhibition at 0.045 µg/mL: > 50%

## CCCCCc1ccc(C(=O)NCCn2cc(CCCCCc3c[nH]c(NCc4ccc(CCCC)cc4)n3)nn2)cc1
Staphylococcus aureus [20]
  IC50: 16 to 18 µM
Staphylococcus aureus [21]
  IC50: 16 to 18 µM
Staphylococcus aureus [22]
  IC50: 16 to 18 µM

## CC1(C)Cc2c(C#N)c(SCCc3ccccc3)nc(N3CCOCC3)c2CO1
Escherichia coli [23]
  fold change (FC): 4
Escherichia coli [24]
  fold change (FC): 8
Escherichia coli [25]
  fold change (FC): 2
Escherichia coli [26]
  fold change (FC): 10000

## CCCCOc1ccc(/C=C(\C)Cn2cc(CCCCCc3c[nH]c(N)n3)nn2)cc1
Acinetobacter baumannii
  IC50: 44.7 µM
Staphylococcus aureus [27]
  inhibition at 100 µM: > 94%
Staphylococcus aureus [28]
  IC50: 8.55 µM

## CC(=O)NNC(=O)[C@@H]1CC[C@@H]2CN1C(=O)N2OS(=O)(=O)[O-].[Na+]
[29]
  IC50: 3.2 µM
[30]
  IC50: 0.008 to 0.327 µM
Escherichia coli [31]
  MIC: ≤ 2 µg/mL
Enterobacter
  MIC: ≤ 2 µg/mL
Pseudomonas aeruginosa [32]
  MIC: ≤ 2 µg/mL
[33]
  IC50: 0.008 to 0.327 µM
[34]
  IC50: 0.008 to 0.327 µM
[35]
  IC50: 0.008 to 0.327 µM
